In the supplement of paper PMC11208160:

Assay: recombinant UMI read abundance after kanamycin selection (control-corrected) (log10(CPM+1)); higher = more efficient recombination; extreme values may be limits of the assay; sequences stand for … in AGTGCAGAGAAAATCGGCCAGTTTTCTCTGCCTGCAGTCCGCATGCCGTGGGACCCCTTGGGTTCTAACCTGTTGCCTAGATTTATGCAGCGGACTGCCTTTCTCCCAAAGTGATAAACCGG…AGGTTGGTTTCACT; site = the 11-nt donor
Method in brief: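 After plating on IPTG (0.07 mM) plus kanamycin, or unselected, in two replicates, recombinant UMIs were PCR-amplified across the donor–target junction and sequenced. The cells were Escherichia coli co-electroporated with a UMI-tagged donor and donor-binding-loop pair library and a target plasmid with a fixed target and T7-inducible IS621 bridge recombinase. Values are log10(CPM+1), with CPM averaged over replicates and scaled by control-derived factors.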
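Also: IS621 bridge recombinase in Escherichia coli cells against a fixed T5 target plasmid.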

Question: Which “recombinant UMI read abundance (log10)” value does the source give for “TCGGAGACATGGACCGGTTTTCCCGGTAATCCGTATTTGCG (site TCTGAGACTCG)” here?
Answer: Its value is 0.976.

Question: Which “recombinant UMI read abundance (log10)” value does the source give for “TCGGCGGCATGGACCGGTTTTCCCGGTAATCCGTATTTGAG (site TCGGCGGCTCT)” here?
Answer: The value was 0.464.

Question: With “TCGGGTACATGGACCGGTTTTCCCGGTAATCCGTATTTGAC (site TCGGGTACTGT)” as the sequence, how does the “recombinant UMI read abundance (log10)” value read?
Answer: Its value is 0.

Question: Which “recombinant UMI read abundance (log10)” value does the source give for “TCGTATTCATGGACCGGTTTTCCCGGTAATCCGTATTTGTT (site TCGTATTCTAA)” here?
Answer: Its value is 1.24.

Question: For “TCGTCTACATGGACCGGTTTTCCCGGTAATCCGTATTTGAT (site TCGTCTACTAT)”, which “recombinant UMI read abundance (log10)” value is on record?
Answer: Its value is 0.00771.

Question: For “TCGTGATCATGGACCGGTTTTCCCGGTAATCCGTATTTGGC (site TCGTGATCTGC)”, which “recombinant UMI read abundance (log10)” value is on record?
Answer: Its value is 0.

Question: Which “recombinant UMI read abundance (log10)” value does the source give for “TCGTTAACATGGACCGGTTTTCCCGGTAATCCGTATTTGTT (site TCGTTAACTAA)” here?
Answer: Its value is 0.00894.

Question: With “TCGTTCACATGGACCGGTTTTCCCGGTAATCCGTATTTGGA (site TCGTTCACTTC)” as the sequence, how does the “recombinant UMI read abundance (log10)” value read?
Answer: The value was 0.0102.

Question: For “TCGTTCTCATGGACCGGTTTTCCCGGTAATCCGTATTTGGG (site TCGTTCTCTCC)”, which “recombinant UMI read abundance (log10)” value is on record?
Answer: Its value is 0.00264.

Question: With “TCTAAATCATGGACCGGTTTTCCCGGTAATCCGTATTTGTT (site TCTAAATCTAA)” as the sequence, how does the “recombinant UMI read abundance (log10)” value read?
Answer: The value was 0.

Question: Which “recombinant UMI read abundance (log10)” value does the source give for “TCTAAGACATGGACCGGTTTTCCCGGTAATCCGTATTTGTG (site TCTAAGACTCA)” here?
Answer: Its value is 0.00606.

Question: For “TCTAAGGCATGGACCGGTTTTCCCGGTAATCCGTATTTGGT (site TCTAAGGCTAC)”, which “recombinant UMI read abundance (log10)” value is on record?
Answer: Its value is 0.43.

Question: Which “recombinant UMI read abundance (log10)” value does the source give for “TCTACACCATGGACCGGTTTTCCCGGTAATCCGTATTTGGT (site TCTACACCTAC)” here?
Answer: The value was 0.00817.

Question: Which “recombinant UMI read abundance (log10)” value does the source give for “TCTGAAACATGGACCGGTTTTCCCGGTAATCCGTATTTGTG (site TCTGAAACTCA)” here?
Answer: The value was 0.00806.

Question: Which “recombinant UMI read abundance (log10)” value does the source give for “TCTGAGACATGGACCGGTTTTCCCGGTAATCCGTATTTGCC (site TCTGAGACTGG)” here?
Answer: The value was 0.0914.

Question: With “TCTGAGACATGGACCGGTTTTCCCGGTAATCCGTATTTGCG (site TCAGAGACTCG)” as the sequence, how does the “recombinant UMI read abundance (log10)” value read?
Answer: The value was 0.

Question: For “TCTGAGACATGGACCGGTTTTCCCGGTAATCCGTATTTGCG (site TCCGAGACTCG)”, which “recombinant UMI read abundance (log10)” value is on record?
Answer: The value was 0.022.

Question: Which “recombinant UMI read abundance (log10)” value does the source give for “TCTGAGACATGGACCGGTTTTCCCGGTAATCCGTATTTGCG (site TCGGAGACTCG)” here?
Answer: The value was 0.285.

Question: Which “recombinant UMI read abundance (log10)” value does the source give for “TCTGAGACATGGACCGGTTTTCCCGGTAATCCGTATTTGCG (site TCTGAGACTCG)” here?
Answer: Its value is 0.476.

Question: With “TCTGCAGCATGGACCGGTTTTCCCGGTAATCCGTATTTGTA (site TCTGCAGCTTA)” as the sequence, how does the “recombinant UMI read abundance (log10)” value read?
Answer: Its value is 0.

Question: With “TCTGCCCCATGGACCGGTTTTCCCGGTAATCCGTATTTGGG (site TCTGCCCCTCC)” as the sequence, how does the “recombinant UMI read abundance (log10)” value read?
Answer: The value was 0.00716.

Question: Which “recombinant UMI read abundance (log10)” value does the source give for “TCTGCCGCATGGACCGGTTTTCCCGGTAATCCGTATTTGAG (site TCTGCCGCTCT)” here?
Answer: Its value is 0.0275.

Question: For “TCTGGATCATGGACCGGTTTTCCCGGTAATCCGTATTTGCT (site TCTGGATCTAG)”, which “recombinant UMI read abundance (log10)” value is on record?
Answer: Its value is 0.

Question: With “TCTGGGTCATGGACCGGTTTTCCCGGTAATCCGTATTTGTT (site TCTGGGTCTAA)” as the sequence, how does the “recombinant UMI read abundance (log10)” value read?
Answer: The value was 0.167.

Question: With “TCTGGTCCATGGACCGGTTTTCCCGGTAATCCGTATTTGAG (site TCTGGTCCTCT)” as the sequence, how does the “recombinant UMI read abundance (log10)” value read?
Answer: The value was 0.00736.

Question: For “TCTGTCGCATGGACCGGTTTTCCCGGTAATCCGTATTTGGC (site TCTGTCGCTGC)”, which “recombinant UMI read abundance (log10)” value is on record?
Answer: Its value is 0.00952.

Question: With “TCTGTGGCATGGACCGGTTTTCCCGGTAATCCGTATTTGAC (site TCTGTGGCTGT)” as the sequence, how does the “recombinant UMI read abundance (log10)” value read?
Answer: The value was 0.

Question: Which “recombinant UMI read abundance (log10)” value does the source give for “TCTTCGACATGGACCGGTTTTCCCGGTAATCCGTATTTGAG (site TCTTCGACTCT)” here?
Answer: Its value is 0.0148.

Question: Which “recombinant UMI read abundance (log10)” value does the source give for “TCTTCTTCATGGACCGGTTTTCCCGGTAATCCGTATTTGAA (site TCTTCTTCTTT)” here?
Answer: The value was 0.00225.

Question: For “TGAAAGGCATGGACCGGTTTTCCCGGTAATCCGTATTTGCT (site AGAAAGGCTAG)”, which “recombinant UMI read abundance (log10)” value is on record?
Answer: The value was 0.855.

Question: Which “recombinant UMI read abundance (log10)” value does the source give for “TGAAAGGCATGGACCGGTTTTCCCGGTAATCCGTATTTGCT (site CGAAAGGCTAG)” here?
Answer: Its value is 0.708.

Question: With “TGAAAGGCATGGACCGGTTTTCCCGGTAATCCGTATTTGCT (site GGAAAGGCTAG)” as the sequence, how does the “recombinant UMI read abundance (log10)” value read?
Answer: The value was 0.
